Measurements as given in ChEMBL document CHEMBL3046939, “Design, synthesis, and anti-allergic activities of novel (R)(-)-1-[(4-chlorophenyl)phenyl methyl]piperazine derivatives” (2012).

Assays:
Type in all cases: functional
Cavia porcellus [1] = experiment: Antiasthmatic activity in Cavia porcellus (guinea pig) histamine phosphate-induced asthmatic model assessed as latent period of asthma at 50 mg/kg, administered 1 hr before histamine phosphate challenge with food (reference value: 115.4 +/- 126.2 /s)
Cavia porcellus [2] = experiment: Antipruritic activity in Cavia porcellus (guinea pig) histamine phosphate-induced itching model assessed as increase of total amount of histamine phosphate level at 50 mg/kg, administered 1 hr before histamine phosphate challenge with food relative to control
Cavia porcellus [3] = experiment: Antipruritic activity in Cavia porcellus (guinea pig) histamine phosphate-induced itching model assessed as increase of total amount of histamine phosphate level at 50 mg/kg, administered 1 hr before histamine phosphate challenge with food relative to levocetirizine

Row | Compound | Time (Cavia porcellus [1]) [s] | Activity (Cavia porcellus [2]) [%] | Activity (Cavia porcellus [3]) [%]
1 | O=S(=O)(Nc1ccc(Cl)nn1)c1ccc(NCCN2CCN([C@H](c3ccccc3)c3ccc(Cl)cc3)CC2)cc1 | 255.5 | 883.81 | 103.46
2 | Nc1ccc(S(=O)(=O)N(CCN2CCN([C@H](c3ccccc3)c3ccc(Cl)cc3)CC2)c2nccs2)cc1 | 184.8 | 429.01 | 9.4
3 | Cc1cc(C)nc(NS(=O)(=O)c2ccc(NCCCN3CCN([C@H](c4ccccc4)c4ccc(Cl)cc4)CC3)cc2)n1 | 136.8 | 382.83 | -0.15
4 | O=S(=O)(Nc1ccc(Cl)nn1)c1ccc(NCCCN2CCN([C@H](c3ccccc3)c3ccc(Cl)cc3)CC2)cc1 | 184.1 | 783.62 | 82.74
5 | COc1ccc(NS(=O)(=O)c2ccc(NCCCN3CCN([C@H](c4ccccc4)c4ccc(Cl)cc4)CC3)cc2)nn1 | 295.6 | 593.5 | 43.42
6 | COc1ccc(N(CCN2CCN([C@H](c3ccccc3)c3ccc(Cl)cc3)CC2)S(=O)(=O)c2ccc(N)cc2)nn1 | 288 | 686.34 | 62.62
7 | O=S(=O)(Nc1nccs1)c1ccc(NCCCN2CCN([C@H](c3ccccc3)c3ccc(Cl)cc3)CC2)cc1 | 324.8 | 296.34 | -18.04
8 | O=S(=O)(Nc1nccs1)c1ccc(NCCN2CCN([C@H](c3ccccc3)c3ccc(Cl)cc3)CC2)cc1 | 360 | 292.61 | -18.8
9 | Nc1ccc(S(=O)(=O)N(CCCN2CCN([C@H](c3ccccc3)c3ccc(Cl)cc3)CC2)c2nccs2)cc1 | 240.3 | 395.34 | 2.44
10 | COc1ccc(NS(=O)(=O)c2ccc(NCCN3CCN([C@H](c4ccccc4)c4ccc(Cl)cc4)CC3)cc2)nn1 | 360 | 279.65 | -21.49
11 | Cc1cc(C)nc(NS(=O)(=O)c2ccc(NCCN3CCN([C@H](c4ccccc4)c4ccc(Cl)cc4)CC3)cc2)n1 | 167.4 | 92.07 | -60.28
12 | Nc1ccc(S(=O)(=O)NCCCN2CCN([C@H](c3ccccc3)c3ccc(Cl)cc3)CC2)cc1 | 269.4 | 901.67 | 107.15
13 | Nc1ccc(S(=O)(=O)NCCN2CCN([C@H](c3ccccc3)c3ccc(Cl)cc3)CC2)cc1 | 266.2 | 395.87 | 2.55
14 | Nc1ccc(S(=O)(=O)N(CCN2CCN([C@H](c3ccccc3)c3ccc(Cl)cc3)CC2)c2ccc(Cl)nn2)cc1 | 151.2 | 6.4 | -78
15 | O=C(O)CNCCCN1CCN([C@H](c2ccccc2)c2ccc(Cl)cc2)CC1 | 360 | 493.36 | 22.71
16 | O=S(=O)(Nc1ncccn1)c1ccc(NCCCN2CCN([C@H](c3ccccc3)c3ccc(Cl)cc3)CC2)cc1 | 229.2 | 576.61 | 39.93
17 | C[C@H](NCCCN1CCN([C@H](c2ccccc2)c2ccc(Cl)cc2)CC1)C(=O)O | 307.6 | 933.8 | 113.8
18 | O=S(=O)(Nc1ncccn1)c1ccc(NCCN2CCN([C@H](c3ccccc3)c3ccc(Cl)cc3)CC2)cc1 | 246.4 | 1436.72 | 217.8
19 | Nc1ccc(S(=O)(=O)N(CCCN2CCN([C@H](c3ccccc3)c3ccc(Cl)cc3)CC2)c2ccc(Cl)nn2)cc1 | 301.8 | 432.37 | 10.1
